{"source": "patent US20030109504A1", "about": "“Treatment of movement disorders with metabotropic glutamate receptors antagonist” (priority 2000, published 2003)", "key": {"[1]": {"test_system": "reserpine-treated rat model of Parkinson's disease", "assay": "Locomotion (mobile counts) in reserpine-treated rat model of Parkinson's disease, antagonist combined with chloro-APB or quinpirole", "type": "in vivo", "settings": "for total mobile counts: antagonist 1 mg/kg plus chloro-APB 0.2 mg/kg, versus vehicle plus chloro-APB (FIG. 1)", "method": "The effect of metabotropic glutamate receptor antagonists on the anti-parkinsonian effects of chloro-APB (0.2 mg/kg) or quinpirole (0.1 mg/kg) was assessed in a reserpine-treated rat model of Parkinson's disease.\nMale Sprague-Dawley rats were split into two groups A and B. Rats in both groups were rendered parkinsonian by subcutaneous administration of reserpine (3 mg/kg) for 18 hours.\nAfter the 18 hours Group A were treated with either chloro-APB (0.2 mg/kg) or quinpirole (0.1 mg/kg) and then subdivided into groups A1, A2 and A3. These subgroups were additionally administered the following selective metabotropic glutamate receptor antagonists (1 mg/kg):\nA1: (RS)-1-Aminoindan-1,5-dicarboxylic acid (AIDA—Group I metabotropic glutamate receptor antagonist);\nA2: (2S)-alpha-Ethylglutamic acid (EGLU—Group II metabotropic glutamate receptor antagonist); and\nA3: (RS)-alpha-Methylserine-O-phosphate (MSOP—Group III metabotropic glutamate receptor antagonist).\nGroup B were treated with chloro-APB (0.2 mg/kg) and vehicle for the antagonists only.\nThe locomotion of the rats in Groups A and B was measured over a one hour period using Benwick locomotor monitors. These locomotion monitors consist of a visually-shielded open-field arena, the perimeter of which is surrounded by a series of infra-red beams arranged at 5 cm intervals. PC-based software (Amlogger) assesses the number of beams broken. The number of beams broken as part of a locomotor movement (mobile counts) or the number of beam breaks while the animal is not locomoting (static counts) were measured. In addition, the system assesses the time for which animals are mobile or static."}, "[2]": {"test_system": "MPTP-lesioned marmoset model of Parkinson's disease", "assay": "Mobility, locomotor activity and dyskinesia in MPTP-lesioned marmoset model of Parkinson's disease, combination with L-DOPA", "type": "in vivo, Marmosets (Callithrix jacchus)", "settings": "MPTP-lesioned marmosets; for L-DOPA-induced mobility and locomotor activity (reversal of parkinsonism): L-DOPA 8 mg/kg with or without SIB-1893 10 mg/kg (FIG. 3)", "method": "The effect of the mGluR group I (selective for mGlu5) receptor antagonist SIB-1893 in combination with L-DOPA was assessed in the MPTP-lesioned marmoset model of Parkinson's disease. The ability of the traditional anti-parkinsonian agent L-DOPA to alleviate symptoms was compared with the combined therapy.\nMarmosets (Callithrix jacchus) (bred in a closed colony at the University of Manchester) are rendered parkinsonian by subcutaneous injection of 2 mg kg^−1 MPTP for 5 consecutive days. The marmosets are allowed to recover for a minimum of 10 weeks until their parkinsonism becomes stable. The degree of activity and disability before and after MPTP treatment is assessed using a combination of scales as described below. Animals are then treated with L-DOPA for at least 3 weeks to prime them to elicit dyskinesia.\n1) Activity—a quantitative assessment using computer-based activity monitors was obtained every 5 minutes for the duration of the experiment. p1 2) Parkinsonian disability—non-parametric measures based on the following scales:\nMobility score: 0=no movement, 1=movement of head on the floor of the cage, 2=movement of limbs, but no locomotion, on the floor of the cage, 3=movement of head or trunk on wall of cage or perch, 4=movement of limbs, but no locomotion, on wall of cage or perch, 5=walking around floor of cage or eating from hopper on floor, 6=hopping on floor of cage, 7=climbing onto wall of cage or perch, 8=climbing up and down the walls of the cage or along perch, 9=running, jumping, climbing between cage walls/perch/roof, uses limbs through a wide range of motion and activity.\nDyskinesia score: 0Absent, 1=Mild, fleeting, 2=Moderate, not interfering with normal activity, 3=Marked, at times interfering with normal activity, 4=Severe, continuous, replacing normal activity.\nThe behavioural tests were assessed every 30 minutes for 4 hours, by post hoc analysis of video-recordings by an observer blinded to the treatment.\nThe treatments were randomised such that on each day all six marmosets received one of the treatments. […]"}, "[3]": {"settings": "reserpine-treated Sprague-Dawley rats, one hour"}}, "note": "“Also recorded” adds a separate entry of the source."}
{"smiles": "NC1(C(=O)O)CCc2cc(C(=O)O)ccc21", "note": "(racemic) [AIDA, (RS)-1-Aminoindan-1,5-dicarboxylic acid]", "values": [{"measurement": "total mobile counts", "setting": "[1]; [3]", "value": "greater than those treated with vehicle and chloro-APB only"}, {"measurement": "efficacy in combination therapy (overall conclusion)", "setting": "[1]; reserpine-treated rats, combination with chloro-APB or quinpirole", "value": "particularly effective"}]}
{"smiles": "CC(N)(COP(=O)(O)O)C(=O)O", "note": "(racemic) [MSOP, (RS)-alpha-Methylserine-O-phosphate]", "values": [{"measurement": "total mobile counts", "setting": "[1]; [3]", "value": "greater than those treated with vehicle and chloro-APB only"}]}
{"smiles": "CC[C@](N)(CCC(=O)O)C(=O)O", "note": "[EGLU, (2S)-alpha-Ethylglutamic acid]", "values": [{"measurement": "mobility (locomotion)", "setting": "[1]; reserpine-treated Sprague-Dawley rats, antagonist 1 mg/kg plus quinpirole 0.1 mg/kg, one hour, versus vehicle plus quinpirole (FIG. 2)", "value": "greater mobility than those treated with vehicle and quinpirole only"}]}
{"smiles": "N[C@@H](Cc1ccc(O)c(O)c1)C(=O)O", "note": "[L-DOPA]", "values": [{"measurement": "L-DOPA-induced mobility and locomotor activity (reversal of parkinsonism)", "setting": "[2]", "value": "good anti-parkinsonian action"}]}
{"smiles": "Cc1cccc(C=Cc2ccccc2)n1", "note": "[SIB-1893, 2-Methyl-6-(2-phenylethenyl)pyridine]", "values": [{"measurement": "L-DOPA-induced dyskinesia", "setting": "[2]; L-DOPA 8 mg/kg plus SIB-1893 10 mg/kg versus vehicle plus L-DOPA, p<0.05 (FIG. 4)", "value": "significantly less severe L-DOPA-induced dyskinesia"}, {"measurement": "L-DOPA-induced mobility and locomotor activity (reversal of parkinsonism)", "setting": "[2]", "value": "good anti-parkinsonian action; also recorded: as effective as L-DOPA alone in reversing parkinsonism"}]}
